Results as given in PubChem BioAssay (NCI).
Where “and” joins values, the source holds several entries; their conditions need not be identical. Equal values may be shown once.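 Dose response: 5 concentrations. Exposure: 48 h. Format: 96-well plates. Endpoint: linear interpolation; highest concentration if not reached. GI50: concentration for 50% inhibition of growth. TGI marks complete inhibition of growth.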

Legend:
Experiment in all cases: inhibition of tumour cell growth, NCI panel, 48 h
NCI-H226 lung = test system: NCI-H226 lung
U251 CNS = test system: U251 CNS
K-562 leukemia = test system: K-562 leukemia
HCC-2998 colon = test system: HCC-2998 colon
HCT-15 colon = test system: HCT-15 colon
LOX IMVI melanoma = test system: LOX IMVI melanoma
MCF7 breast = test system: MCF7 breast
DU-145 prostate = test system: DU-145 prostate
TK-10 renal = test system: TK-10 renal
MDA-MB-435 = test system: MDA-MB-435

SMILES	TGI (NCI-H226 lung)	TGI (U251 CNS)	TGI (K-562 leukemia)	TGI (HCC-2998 colon)	TGI (HCT-15 colon)	TGI (LOX IMVI melanoma)	TGI (MCF7 breast)	TGI (DU-145 prostate)	TGI (TK-10 renal)	TGI (MDA-MB-435)	GI50 (MDA-MB-435)	GI50 (K-562 leukemia)	GI50 (HCC-2998 colon)	GI50 (NCI-H226 lung)	GI50 (U251 CNS)	GI50 (HCT-15 colon)	GI50 (LOX IMVI melanoma)	GI50 (MCF7 breast)
C=C1C(=O)C[C@@]23CCC[C@@]12CC(O)C3 (some centres not stated)	45.8 µM	> 100 µM	> 87 µM	> 62.1 µM	28.8 µM	31.3 µM	33.6 µM											
Cc1cnc2[nH]c(-c3ccccc3)cc(=O)c2c1	9.69 µM	> 22.1 µM		1.96 µM	1.41 µM	> 100 µM	> 100 µM	> 100 µM	99.5 µM									
O=C(O)c1ccccc1-c1ccccc1C(=O)c1ccccc1	> 100 µM	> 100 µM	> 100 µM		> 100 µM	> 100 µM	> 100 µM	> 100 µM	> 100 µM	> 100 µM								
c1ccc(C/C(=N\Nc2nc3ccccc3o2)c2ccccn2)cc1	0.363 µM	5.32 µM	3.66 µM		4.64 µM	2.27 µM	0.0215 µM	8.38 µM	1.81 µM	12.7 µM								
C=C1c2nc3ccccc3n2C=C(c2ccccc2)N1c1ccc(OC)cc1	35.6 µM	> 100 µM	> 100 µM		20.3 µM	> 100 µM	24.1 µM	> 100 µM	26.1 µM	> 100 µM								
C/C(=C/CC[C@](C)(OC1OC(CO)C(O)C(O)C1O)[C@H]1CC[C@]2(C)[C@@H]1CC[C@@H]1[C@@]3(C)CC[C@H](O)C(C)(C)[C@@H]3C[C@H](O)[C@]12C)CO (some centres not stated)	60.4 µM	28.5 µM	62.2 µM		57.5 µM	33.9 µM	> 100 µM	> 100 µM	> 100 µM	> 100 µM								
COc1cc2cc3c4c(cc(OC)c(OC)c4c2cc1OC)CCN3C(=O)OCCBr	2.42 µM	> 100 µM		> 100 µM	> 100 µM	> 100 µM			> 100 µM									
C/C=C\C(CC(=O)O)CC(=O)NCCC1CN(S(=O)(=O)C(F)(F)F)c2ccccc21 (configuration not stated)		> 100 µM	> 100 µM	> 100 µM	> 100 µM	> 100 µM	> 100 µM	> 100 µM		> 100 µM								
CCCCCCCC(CC(=O)O)OC(=O)CC(CCCCCCC)OC1OC(C)C(O)C(O)C1OC1OC(C)C(O)C(O)C1O (configuration not stated)	> 100 µM	> 100 µM	> 100 µM	> 100 µM	> 100 µM	> 100 µM	> 100 µM	> 100 µM		> 100 µM								
CCOC(=O)C(Cc1c(-c2[nH]c3ccccc3c2CC(NC(=O)CNC(C)=O)C(=O)OCC)[nH]c2ccccc12)NC(=O)CNC(C)=O (configuration not stated)		> 100 µM		47.8 µM	> 100 µM			> 100 µM	> 100 µM	> 100 µM								
COC(=O)c1cc2c3c(c(C(C)=O)c(OC)c2[nH]1)NCC3	> 50 µM	> 50 µM	> 50 µM		> 50 µM	> 50 µM	> 50 µM	> 50 µM	> 50 µM	> 50 µM								
Cc1cccc(N2CCN(S(=O)(=O)c3ccc(Cl)cc3)C2=N)c1C	> 100 µM	> 100 µM	> 100 µM				> 100 µM	> 100 µM	> 100 µM	> 100 µM								
CC(=O)Nc1ccc(C(=O)N2N=C(C)/C(=C/c3cccc(O)c3)C2=O)cc1	> 100 µM	> 100 µM	> 100 µM	> 100 µM	> 100 µM	> 100 µM			> 100 µM									
C=C1C(=O)O[C@H]2C(=O)[C@H](C)CCC[C@@](C)(O)/C=C\C[C@@]3(C)O[C@@H]3C[C@@H]12	> 100 µM	34.4 µM			25.9 µM	32.2 µM	37.5 µM	27.6 µM	15.1 µM	36.1 µM								
Cn1c(=O)c2[nH]c(N/N=C3/SCC(=O)N3Cc3ccccc3)nc2n(C)c1=O	> 100 µM	> 100 µM	> 100 µM	> 100 µM	> 100 µM		45.8 µM	> 100 µM	> 100 µM	50.1 µM								
COc1cccc(N2N=C3c4ccccc4-n4c(nc5ccccc54)C3C2N)c1 (configuration not stated)		> 100 µM		> 100 µM	> 100 µM	> 100 µM	> 100 µM	> 100 µM	> 100 µM	> 100 µM								
O=C(Cc1nc2ccc([N+](=O)[O-])cc2[nH]c1=O)C(=O)Nc1cc(Cl)c(Cl)cc1Cl	> 100 µM	> 100 µM		> 100 µM	> 100 µM	> 100 µM	> 100 µM	> 100 µM	> 100 µM	> 100 µM								
COc1cc(/C=C2\C[C@H]3[C@@H]4CC=C5C[C@@H](N6CCCC6)CC[C@]5(C)[C@H]4CC[C@]3(C)[C@H]2OC(C)=O)cc(OC)c1OC	48.3 µM	29.2 µM		10.4 µM	25.1 µM		29.8 µM	32.9 µM	34.8 µM	26.8 µM								
COC1(OC)/C(=C(\N)C=O)NC(C)(C)N1O	> 100 µM	> 100 µM	> 100 µM	> 100 µM		> 100 µM	> 100 µM	> 100 µM		> 100 µM								
CN1C/C(=C\c2ccccc2[N+](=O)[O-])C(=O)/C(=C/c2ccccc2[N+](=O)[O-])C1	16.3 µM	3.83 µM and 3.86 µM		5.52 µM and 3.01 µM	0.527 µM and 0.696 µM		1.94 µM and 3.04 µM	6.66 µM and 3.62 µM	2.42 µM and 2.17 µM	3.1 µM and 0.706 µM	0.86 µM and 0.254 µM	0.25 µM and 0.089 µM	2.26 µM					
OCc1ccccc1OC1OC(CO)C(O)C(O)C1O (configuration not stated)	> 100 µM	> 100 µM		> 100 µM	> 100 µM	> 100 µM	> 100 µM	> 100 µM	> 100 µM	> 100 µM								
CC(=O)c1c(O)c(C)c(O)c2c1OC1=CC(=O)C(C(C)=O)C(=O)C12C (configuration not stated)	20.6 µM and 60.2 µM	18.4 µM and 47.6 µM	24.3 µM and 84.8 µM	17.1 µM and 22.8 µM	27.6 µM and 60.4 µM	33.3 µM and 37.9 µM	24.7 µM and 26 µM					4.62 µM and 23 µM	6.08 µM and 13.7 µM	6.93 µM and 18.3 µM	4.13 µM and 11.3 µM	5.23 µM and 16.6 µM	5.53 µM and 12.6 µM	5.75 µM and 12 µM
